According to US10232058B2, “Prostate-specific membrane antigen-targeted photosensitizers for photodynamic therapy” (THE JOHNS HOPKINS UNIVERSITY, priority 2013, dated 2019):

Target: PSMA (Homo sapiens, UniProt Q04609)
Assay: fluorescence-based PSMA binding assay
Conditions: read-out: PSMA binding affinity Ki

Sequence of PSMA (Q04609 whole entry): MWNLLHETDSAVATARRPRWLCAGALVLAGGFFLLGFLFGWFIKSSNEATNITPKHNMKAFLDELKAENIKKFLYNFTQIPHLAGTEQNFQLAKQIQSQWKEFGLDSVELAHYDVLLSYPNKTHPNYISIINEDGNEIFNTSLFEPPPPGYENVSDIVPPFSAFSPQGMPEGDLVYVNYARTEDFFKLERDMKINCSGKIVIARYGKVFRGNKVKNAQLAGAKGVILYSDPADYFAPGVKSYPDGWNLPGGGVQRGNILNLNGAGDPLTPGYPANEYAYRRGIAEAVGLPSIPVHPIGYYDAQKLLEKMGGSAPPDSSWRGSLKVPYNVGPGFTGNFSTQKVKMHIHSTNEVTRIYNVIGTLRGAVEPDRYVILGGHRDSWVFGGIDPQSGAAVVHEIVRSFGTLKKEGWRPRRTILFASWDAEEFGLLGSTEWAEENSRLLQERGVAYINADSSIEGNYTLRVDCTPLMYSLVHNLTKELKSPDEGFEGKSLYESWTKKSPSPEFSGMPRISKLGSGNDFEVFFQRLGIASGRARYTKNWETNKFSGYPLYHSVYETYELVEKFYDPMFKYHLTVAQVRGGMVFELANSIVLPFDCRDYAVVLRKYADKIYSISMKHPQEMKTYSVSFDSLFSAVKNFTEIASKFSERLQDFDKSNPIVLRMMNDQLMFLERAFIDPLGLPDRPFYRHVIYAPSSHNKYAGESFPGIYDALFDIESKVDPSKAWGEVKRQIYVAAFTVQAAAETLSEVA

- Ki: 1.2 nM
SMILES: C=Cc1c(C)c2cc3nc(c4c5[nH]c(cc6nc(cc1[nH]2)C(C)=C6CC)c(C)c5C(=O)C4)[C@H](CCC(=O)NCCCCC(NC(=O)CCCCCCC(=O)NCCCC[C@H](NC(=O)N[C@@H](CCC(=O)O)C(=O)O)C(=O)O)C(=O)O)[C@H]3C (stereo partly shown) [YC-6]
